Assay results from patent US7122662B2, “Tricyclic compound having spiro union” (Mochida Pharmaceutical Co., Ltd., priority 1999, dated 2006).

Target: T1, human FXa (Homo sapiens, UniProt P00742)
T1 construct: purchased Enzyme Research Laboratories, Inc
Assay: Measurement of human FXa inhibitory action
Assay type: biochemical
Settings: bioassay procedure of Experimental Example 1, a); reference compounds
Method: In vitro FXa inhibitory activity is measured in accordance with the method of Kettner et al. (Journal of Biological Chemistry, vol. 265, pages 18289 to 18297, 1990). To be more specific, human FXa (product of Enzyme Research Laboratories, Inc., 0.019 U/ml) is mixed with a test compound diluted with dimethylsulfoxide (DMSO) at various concentrations and a synthetic substrate S-2222 (Chromogenix AB, 0.4 mM). The mixtures are incubated at 37° C. in Tris-hydrochloric acid buffer (pH 7.5) while the absorbance at 405 nm is measured continuously. To calculate the FXa inhibitory activity of the test compound, the initial reaction velocity is compared with the value for a control containing no test compound. It should be noted that the FXa inhibitory activity of the test compound is generally indicated as IC50.

T1 sequence (P00742 235-488 limits assumed): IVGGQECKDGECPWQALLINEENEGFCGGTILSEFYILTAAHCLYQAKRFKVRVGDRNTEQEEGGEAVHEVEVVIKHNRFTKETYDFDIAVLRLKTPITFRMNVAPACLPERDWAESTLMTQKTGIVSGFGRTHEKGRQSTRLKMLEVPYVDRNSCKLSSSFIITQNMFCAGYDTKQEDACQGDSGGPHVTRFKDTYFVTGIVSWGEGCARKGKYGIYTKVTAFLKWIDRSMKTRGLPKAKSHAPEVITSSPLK
T1 sequence (P00742 41-179 partner limits assumed): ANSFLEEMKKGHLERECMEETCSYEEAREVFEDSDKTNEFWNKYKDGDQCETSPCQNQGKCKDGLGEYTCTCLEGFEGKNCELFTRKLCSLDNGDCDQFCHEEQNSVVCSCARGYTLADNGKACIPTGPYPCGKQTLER

SMILES	IC50
O=C(C(CNS(=O)(=O)c1ccc2cc(Cl)ccc2c1)NCC1CCN(c2ccncc2)CC1)N1CCS(=O)(=O)CC1 (stereo not drawn) [Compound B, 4-[3-(6-chloronaphthalen-2-ylsulfoneamide)-2-[l-(4-pyridyl)piperidin-4-ylmethyl]aminopropionyl]-1,1-dioxothiomorpholine]	31 µM
CCOC(=O)[C@H]1CN(S(=O)(=O)c2ccc3cc(Cl)ccc3c2)CC(=O)N1CC1CCN(c2ccncc2)CC1 [Compound C, (R)-4-(6-chloronaphthalen-2-ylsulfonyl)-6-ethoxycarbonyl-l-[1-(4-pyridyl)piperidin-4-ylmethyl]piperazin-2-one]	28 µM

Test system: human plasma
Assay: Measurement of intrinsic coagulation time (APTT) in vitro
Assay type: biochemical
Settings: not given
Method: Activated partial thromboplastin time (APTT) is measured in the presence of the test compounds diluted at various concentrations. A test compound diluted with DMSO at various concentrations is mixed with human plasma and APTT reagent. The mixture is incubated at 37° C. for 2 minutes; calcium chloride (25 mM) is added to the mixture; and the coagulation time is thereafter measured. It should be noted that the anticoagulant activity of the test compound is described in terms of the concentration required to double the coagulation time for the case where no test compound is added.

SMILES	Concentration required to double coagulation time
COCCOC(=O)C12CN(S(=O)(=O)c3ccc4cc(Cl)ccc4c3)CC(=O)N1CC1(CCN(c3ccncc3)CC1)O2 (single isomer, unassigned; (-)) [Example 42, (−)-1,4-diaza-4-(6-chloronaphthalen-2-ylsulfonyl)-6-(2-methoxyethoxycarbonyl)-7-oxa-1′-(4-pyridyl)spiro[bicyclo[4.3.0]nonane-8,4′-piperidin]-2-one]	0.20 µM
O=C(O)COCC12CN(S(=O)(=O)c3ccc4cc(Cl)ccc4c3)CC(=O)N1CC1(CCN(c3ccncc3)CC1)O2 (stereo not drawn) [Example 5, 1,4-diaza-4-(6-chloronaphthalen-2-ylsulfonyl)-6-(carboxymethoxymethyl)-7-oxa-1′-(4-pyridyl)spiro[bicyclo[4.3.0]nonane-8,4′-piperidin]-2-one]	0.43 µM
COCC12CN(S(=O)(=O)c3ccc4ccccc4c3)CC(=O)N1CC1(CCN(c3ccncc3)CC1)O2 (stereo not drawn) [Example 6, 1,4-diaza-6-(methoxymethyl)-4-(2-naphthalenesulfonyl)-7-oxa-1′-(4-pyridyl)spiro[bicyclo[4.3.0]nonane-8,4′-piperidin]-2-one]	0.99 µM
O=C1CN(S(=O)(=O)c2ccc3cc(Cl)ccc3c2)CC2OC3(CCN(c4ccncc4)CC3)CN12 (stereo not drawn) [Example 9, 1,4-diaza-4-(6-chloronaphthalen-2-ylsulfonyl)-7-oxa-1′-(4-pyridyl)spiro[bicyclo[4.3.0]nonane-8,4′-piperidin]-2-one]	0.29 µM
COCC12CN(S(=O)(=O)c3ccc4cc(Cl)ccc4c3)CC(=O)N1CC1(CCN(c3cc[n+](C)cc3)CC1)O2.Cc1ccc(S(=O)(=O)[O-])cc1 (stereo not drawn) [Example 23, 4-[1,4-diaza-4-(6-chloronaphthalen-2-ylsulfonyl)-6-(methoxymethyl)-7-oxa-2-oxospiro[bicyclo[4.3.0]nonane-8,4′-piperidin-1′-yl]]-1-methylpyridinium p-toluenesulfonate]	0.62 µM
CC(C)OC(=O)C12CN(S(=O)(=O)c3ccc4cc(Cl)ccc4c3)CC(=O)N1CC1(CCN(c3ccncc3)CC1)O2 (stereo not drawn) [Example 29, 1,4-diaza-4-(6-chloronaphthalen-2-ylsulfonyl)-6-(isopropoxycarbonyl)-7-oxa-1′-(4-pyridyl)spiro[bicyclo[4.3.0]nonane-8,4′-piperidin]-2-one]	0.90 µM
NCC12CN(S(=O)(=O)c3ccc4cc(Cl)ccc4c3)CC(=O)N1CC1(CCN(c3ccncc3)CC1)O2 (stereo not drawn) [Example 58, 6-(aminomethyl)-1,4-diaza-4-(6-chloronaphthalen-2-ylsulfonyl)-7-oxa-1′-(4-pyridyl)spiro[bicyclo[4.3.0]nonane-8,4′-piperidin]-2-one]	0.18 µM
CC12CN(S(=O)(=O)c3ccc4cc(Cl)ccc4c3)CC(=O)N1CC1(CCN(c3ccncc3)CC1)O2 (stereo not drawn) [Example 69, 1,4-diaza-4-(6-chloronaphthalen-2-ylsulfonyl)-6-methyl-7-oxa-1′-(4-pyridyl)spiro[bicyclo[4.3.0]nonane-8,4′-piperidin]-2-one]	0.36 µM
O=C1CN(S(=O)(=O)c2cc3ccc(Cl)cc3s2)CC2NC3(CCN(c4ccncc4)CC3)CN12 (stereo not drawn) [Example 275, 1,4,7-triaza-4-(6-chlorobenzo[b]thiophen-2-ylsulfonyl)-1′-(4-pyridyl)spiro[bicyclo[4.3.0]nonane-8,4′-piperidin]-2-one]	0.17 µM
COCC12CN(S(=O)(=O)C3=Cc4ccc(Cl)cc4OC3)CC(=O)N1CC1(CCN(c3ccncc3)CC1)O2 (stereo not drawn) [Example 388, 1,4-diaza-4-(7-chloro-2H-benzopyran-3-sulfonyl)-6-(methoxymethyl)-7-oxa-1′-(4-pyridyl)spiro[bicyclo[4.3.0]nonane-8,4′-piperidin]-2-one]	0.22 µM
COCC12CN(S(=O)(=O)c3cc4ccc(Cl)cc4s3)CC(=O)N1CC1(CCN(c3ccncc3)CC1)O2 (stereo not drawn) [Example 399, 1,4-diaza-4-(6-chlorobenzo[b]thiophen-2-ylsulfonyl)-6-(methoxymethyl)-7-oxa-1′-(4-pyridyl)spiro[bicyclo[4.3.0]nonane-8,4′-piperidin]-2-one]	0.18 µM
COCC12CN(S(=O)(=O)c3cc4ccc(Cl)cc4s3)CC(=O)N1CC1(CCN(c3ccncc3)CC1)N2 (stereo not drawn) [Example 461, 1,4,7-triaza-4-(6-chlorobenzo[b]thiophen-2-ylsulfonyl)-6-(methoxymethyl)-1′-(4-pyridyl)spiro[bicyclo[4.3.0]nonane-8,4′-piperidin]-2-one]	0.16 µM
COCC12CN(S(=O)(=O)c3cc4cc(Cl)ccc4o3)CC(=O)N1CC1(CCN(c3ccncc3)CC1)N2 (stereo not drawn) [Example 471, 1,4,7-triaza-4-(5-chlorobenzo[b]furan-2-ylsulfonyl)-6-(methoxymethyl)-1′-(4-pyridyl)spiro[bicyclo[4.3.0]nonane-8,4′-piperidin]-2-one]	0.27 µM
COCC12CN(S(=O)(=O)c3cc4cc(Cl)ccc4o3)CC(=O)N1CC1(CCN(c3ccncc3)CC1)N2C (stereo not drawn) [Example 533, 1,4,7-triaza-4-(5-chlorobenzo[b]furan-2-ylsulfonyl)-6-(methoxymethyl)-7-methyl-1′-(4-pyridyl)spiro[bicyclo[4.3.0]nonane-8,4′-piperidin]-2-one]	0.35 µM
O=C1CN(S(=O)(=O)C=Cc2ccc(Cl)s2)CC2OC3(CCN(c4ccncc4)CC3)CN12 (stereo not drawn) [Example 600, 1,4-diaza-4-[2-(5-chlorothiophen-2-yl)ethenesulfonyl]-7-oxa-1′-(4-pyridyl)spiro[bicyclo[4.3.0]nonane-8,4′-piperidin]-2-one]	0.22 µM
COCC12CN(S(=O)(=O)C=Cc3ccc(Cl)s3)CC(=O)N1CC1(CCN(c3ccncc3)CC1)N2C (stereo not drawn) [Example 740, 1,4,7-triaza-4-[2-(5-chlorothiophen-2-yl)ethenesulfonyl]-6-(methoxymethyl)-7-methyl-1′-(4-pyridyl)spiro[bicyclo[4.3.0]nonane-8,4′-piperidin]-2-one]	0.18 µM
